Results reported in patent US20090048174A1, “Methods for inhibiting angiogenesis and tumor growth by inhibition of beta or delta protein kinase C” (priority 2006, published 2009).
Bridge positions count the residues as written; N and C are the ends. Ends that are not written are not given here.

Assays:
[1] = system: human prostate cancer cells (PC3); assay: PC3 prostate tumor xenograft growth in nude mice, osmotic pump delivery; format: in vivo
Excerpt: Male nude mice were subcutaneously injected with human prostate cancer cells (PC3) at six weeks of age. After one week, the animals were implanted with an ALZEJ® (Alza Corporation, Mountain View, Calif.) osmotic pump for delivery of a control saline solution, a control peptide of TAT (residues 47-57, Y[…] ID NO:85), or an inhibitor or activator of PKC (e.g., δV1-1 attached to TAT (YGRKKRRQRRR-CC-SFNSYELGSL; SEQ ID NO: 143), δV1-7 attached to TAT (YGRKKRRQRRR-CC-MRAAEDPM; SEQ ID NO: 144), or βIIV5-3 attached to TAT (YGRKKRRQRRR-CC-QEVIRN; SEQ ID NO: 145). The rate of administration was 0.5 μl/hr, unless otherwise noted. Typical inhibitor or activator concentrations were 3-30 mM. In some cases, a lower concentration was administered initially (e.g., 3 mM) followed by a higher concentration (e.g., 30 mM) in the later weeks of treatment.
(§1) Tumor volumes were measured periodically (e.g., weekly). The mice were typically sacrificed after 5 weeks of treatment. Deuterated water was given to the animals about one week prior to sacrifice to facilitate the measurement of cell proliferation. Angiogenesis and tumor cell proliferation were measured at six weeks by deuterium analyses using gas chromatography-mass spectrometry (GC-MS). Ribose derivatives extracted from DNA that incorporated deuterium during cell division can be identified by GC-MS and can be quantitated over total ribose from all DNA. This measurement allows the calculation of “newly synthesized DNA” during the deuterated water administration (i.e., pulse), from which the fractional turnover rate can be calculated using an exponential equation. Levels of tumor cell markers, angiogenesis-related polypeptides, and apoptosis-related proteins were evaluated by Western blot and immunohistochemistry.

[2] = system: tumor endothelial cells (TEC); assay: Tumor endothelial cell proliferation, deuterium GC-MS fractional turnover; format: in vivo, mice; conditions: three weeks of continuous treatment; vs saline
Protocol: Tumor volumes were measured periodically (e.g., weekly). […] Deuterated water was given to the animals about one week prior to sacrifice to facilitate the measurement of cell proliferation. Angiogenesis and tumor cell proliferation were measured at six weeks by deuterium analyses using gas chromatography-mass spectrometry (GC-MS). Ribose derivatives extracted from DNA that incorporated deuterium during cell division can be identified by GC-MS and can be quantitated over total ribose from all DNA. This measurement allows the calculation of “newly synthesized DNA” during the deuterated water administration (i.e., pulse), from which the fractional turnover rate can be calculated using an exponential equation. Levels of tumor cell markers, angiogenesis-related polypeptides, and apoptosis-related proteins were evaluated by Western blot and immunohistochemistry.

tumor cells (TC) = assay: Tumor cell proliferation, deuterium GC-MS fractional turnover; format: in vivo, mice
Protocol: as §1

CD31 = CD31 staining of tumor samples (tumor vessels); format: in vivo, mice; conditions: 5 weeks of treatment; vs control animals
Excerpt: (§2) Tumor cells (mixed cell populations) obtained from control and βIIPKC peptide inhibitor βIIV5-3-treated animals following 5-weeks of treatment were subjected to histological analysis to determine the effect of the βIIPKC peptide inhibitor on apoptosis (data not shown). CD31 is a tumor endothelial marker used to identify […] in a sample. CD31 (PECAM-1) has been implicated in angiogenesis, apoptosis, cell migration, modulation of integrin-mediated cell adhesion, transendothelial migration, negative regulation of immune cell signaling, autoimmunity, macrophage phagocytosis, IgE-mediated anaphylaxis, and thrombosis. […]
(§3) Tumor volumes were measured periodically (e.g., weekly). […] Angiogenesis and tumor cell proliferation were measured at six weeks by deuterium analyses using gas chromatography-mass spectrometry (GC-MS). Ribose derivatives extracted from DNA that incorporated deuterium during cell division can be identified by GC-MS and can be quantitated over total ribose from all DNA. This measurement allows the calculation of “newly synthesized DNA” during the deuterated water administration (i.e., pulse), from which the fractional turnover rate can be calculated using an exponential equation. Levels of tumor cell markers, angiogenesis-related polypeptides, and apoptosis-related proteins were evaluated by Western blot and immunohistochemistry.

[3] = system: tumor cells (mixed cell populations); assay: Apoptosis histology of tumor samples (TUNEL, Hoechst, cleaved caspase 3); format: in vivo, mice
Excerpt: as §2, §3

[4] = system: vascular endothelial growth factor (VEGF); assay: VEGF concentration in prostate cancer tumor cells (ELISA); format: in vivo, mice; conditions: three weeks of continuous treatment; vs saline
δPKC = target: T1, δPKC (Homo sapiens, UniProt Q05655); assay: Immunoblot of particulate vs total δPKC in tumor cells from treated mice; format: in vivo; conditions: treated for 5 weeks, vs control (FIG. 18E)
T1 construct: endogenous in cells; host or cells: PC3 human prostate cancer xenograft grown in nude mice
T1 sequence (Q05655 whole entry): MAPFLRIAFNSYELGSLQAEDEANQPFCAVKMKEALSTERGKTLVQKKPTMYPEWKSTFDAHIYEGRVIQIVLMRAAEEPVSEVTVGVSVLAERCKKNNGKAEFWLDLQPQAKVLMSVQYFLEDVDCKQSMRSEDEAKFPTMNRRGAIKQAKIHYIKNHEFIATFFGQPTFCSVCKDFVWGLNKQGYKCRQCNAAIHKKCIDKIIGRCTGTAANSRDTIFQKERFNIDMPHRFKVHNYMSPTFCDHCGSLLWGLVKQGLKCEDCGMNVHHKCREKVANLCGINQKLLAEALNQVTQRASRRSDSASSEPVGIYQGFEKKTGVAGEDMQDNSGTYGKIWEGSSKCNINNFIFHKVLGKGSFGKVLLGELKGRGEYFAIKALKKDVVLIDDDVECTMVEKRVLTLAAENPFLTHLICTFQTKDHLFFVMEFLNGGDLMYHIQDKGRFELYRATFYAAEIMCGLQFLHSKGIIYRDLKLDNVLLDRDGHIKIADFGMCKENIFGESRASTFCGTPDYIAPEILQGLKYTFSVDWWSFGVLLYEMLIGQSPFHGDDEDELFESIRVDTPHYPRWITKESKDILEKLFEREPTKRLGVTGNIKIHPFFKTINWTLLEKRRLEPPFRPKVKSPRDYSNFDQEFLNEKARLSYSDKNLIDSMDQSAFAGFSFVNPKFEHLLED
Protocol: (§4) Male nude mice were subcutaneously injected with human prostate cancer cells (PC3) at six weeks of age. […]
(§5) Tumor volumes were measured periodically (e.g., weekly). […] Angiogenesis and tumor cell proliferation were measured at six weeks by deuterium analyses using gas chromatography-mass spectrometry (GC-MS). Ribose derivatives extracted from DNA that incorporated deuterium during cell division can be identified by GC-MS and can be quantitated over total ribose from all DNA. This measurement allows the calculation of “newly synthesized DNA” during the deuterated water administration (i.e., pulse), from which the fractional turnover rate can be calculated using an exponential equation. Levels of tumor cell markers, angiogenesis-related polypeptides, and apoptosis-related proteins were evaluated by Western blot and immunohistochemistry. […]

εPKC = target: T2, εPKC (Homo sapiens, UniProt Q02156); assay: Immunoblot of particulate vs total εPKC in tumor cells from treated mice; format: in vivo; conditions: tumor cells from treated animals; vs control (FIG. 19E)
T2 construct: endogenous in cells; host or cells: PC3 human prostate cancer xenograft grown in nude mice
T2 sequence (Q02156 1-737): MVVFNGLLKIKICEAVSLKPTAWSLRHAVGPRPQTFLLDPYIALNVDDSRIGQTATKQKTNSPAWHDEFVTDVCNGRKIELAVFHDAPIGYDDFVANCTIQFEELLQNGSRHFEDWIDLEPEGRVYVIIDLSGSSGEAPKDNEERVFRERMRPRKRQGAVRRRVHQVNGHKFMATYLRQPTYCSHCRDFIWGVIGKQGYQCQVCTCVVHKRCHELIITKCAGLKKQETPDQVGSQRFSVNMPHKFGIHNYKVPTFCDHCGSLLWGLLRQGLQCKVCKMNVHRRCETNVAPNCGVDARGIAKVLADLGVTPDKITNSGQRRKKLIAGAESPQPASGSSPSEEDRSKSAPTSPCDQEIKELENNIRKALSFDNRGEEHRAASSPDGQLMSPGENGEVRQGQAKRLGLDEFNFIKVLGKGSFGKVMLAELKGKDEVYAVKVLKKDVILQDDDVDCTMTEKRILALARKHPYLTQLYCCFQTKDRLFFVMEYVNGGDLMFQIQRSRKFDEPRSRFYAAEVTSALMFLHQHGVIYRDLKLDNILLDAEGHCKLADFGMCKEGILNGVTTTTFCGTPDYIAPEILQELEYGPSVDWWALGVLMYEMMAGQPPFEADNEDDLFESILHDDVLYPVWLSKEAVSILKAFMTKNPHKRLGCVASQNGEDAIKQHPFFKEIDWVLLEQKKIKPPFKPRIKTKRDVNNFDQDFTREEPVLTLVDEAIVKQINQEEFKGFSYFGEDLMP
Protocol: as §4, §5

Ki67 = Ki67 staining of tumor tissue; format: in vivo, mice; conditions: vs saline
Protocol: Tumor tissue obtained from animals treated with a control saline solution or the δPKC activator peptide were stained with an antibody specific for Ki67 to detect proliferating cells in all phases of the cell cycle (i.e., G1, S-, G2-, and M-phase), but not in resting cells (G0-phase).
as §1

HIF-1a = assay: Immunoblot of HIF-1a in tumor cell homogenate, normalized for GAPDH; format: in vivo, mice; conditions: tumor cells, 5 weeks of treatment; vs saline, p<0.05 (FIG. 24E)
Excerpt: FIGS. 24A-24D show the results of immunoblot analysis total cell homogenate obtained from tumor cells from saline control (FIGS. 24 A and 24C) and δPKC activator (FIGS. 24 B and 24D) treated animals (5 weeks). The blots were probed with an antibody specific for hypoxia-inducible factors (HIF-1a, FIGS. 24A and 24B) or an antibody specific for GAPDH as a control (FIGS. 24C and 24D). FIG. 24E is a graph showing the relative levels of HIF-1a (normalized for GADPH) from FIGS. 24A-24D.
Tumor volumes were measured periodically (e.g., weekly). The mice were typically sacrificed after 5 weeks of treatment. […] Angiogenesis and tumor cell proliferation were measured at six weeks by deuterium analyses using gas chromatography-mass spectrometry (GC-MS). Ribose derivatives extracted from DNA that incorporated deuterium during cell division can be identified by GC-MS and can be quantitated over total ribose from all DNA. This measurement allows the calculation of “newly synthesized DNA” during the deuterated water administration (i.e., pulse), from which the fractional turnover rate can be calculated using an exponential equation. Levels of tumor cell markers, angiogenesis-related polypeptides, and apoptosis-related proteins were evaluated by Western blot and immunohistochemistry. […]

Substance: δV1-7: activator of δPKC, amino acid sequence MRAAEDPM (SEQ ID NO: 146), attached to TAT (YGRKKRRQRRR-CC-MRAAEDPM; SEQ ID NO: 144) (YGRKKRRQRRRCCMRAAEDPM; disulfide 12-13 (inferred))
- tumor mass ([1]; 3 weeks of treatment, vs saline (FIG. 25C)): decreased
- tumor volume ([1]; continuous treatment, vs saline and Tat control groups, p=0.004 (FIG. 20)): significantly increased tumor volume
- tumor volume ([1]; three weeks of treatment, peptide conjugated to TAT, vs TAT control (FIG. 17)): increase in tumor volume
- rate of tumor endothelial cell (TEC) proliferation, fractional turnover per day [2]: similar
- rate of tumor cell proliferation (tumor cells (TC); 5 weeks of treatment (end-stage), vs saline (FIG. 22)): substantial increase
- rate of tumor cell (TC) proliferation, fractional turnover per day (tumor cells (TC); three weeks of continuous treatment, vs saline): appeared to decrease
- CD31 staining (tumor vascularization) (CD31): several-fold increase
- percentage of cells stained by TUNEL labeling ([3]; mixed tumor cell population, 5 weeks of treatment, vs saline (FIG. 26)): increased TUNEL labeling only slightly
- tumor volume as a function of the percent of TUNEL-positive cells ([3]; vs saline control animals (FIG. 27A-27C)): larger tumor volumes for a given percent of TUNEL-positive cells
- concentration of VEGF in prostate cancer tumor cells [4]: not increased
- levels of particulate δPKC compared to total δPKC (δPKC): approximately doubled
- levels of particulate εPKC compared to total εPKC (εPKC): do not substantially change
- Ki67 staining (proliferating cells) (Ki67): increased Ki67 staining
- levels of HIF-1a normalized for GAPDH (HIF-1a): several-fold increase
